Reference: article PMC7470070, “Discovery of N-(1-(3-fluorobenzoyl)-1H-indol-5-yl)pyrazine-2-carboxamide: a novel, selective, and competitive indole-based lead inhibitor for human monoamine oxidase B” (Journal of Enzyme Inhibition and Medicinal Chemistry, 2020)
Entries after “also recorded” stand apart in the source; their conditions may differ. Read-outs that look alike come from different tables or passages of the source.

How the values were obtained:
[1] = target: T1, Human recombinant MAO-B (hMAO-B) (Homo sapiens, UniProt P27338); assay: Monoamine oxidase enzyme assay (Amplex Red), MAO-B; type: biochemical; conditions: for inhibition at 10 µM: read-out: Inhibition percent of MAO-B; for IC50: as given in abstract; for SI (selectivity index), IC50 (MAO-A)/IC50 (MAO-B): selectivity for the MAO-B isoform
T1 construct: purchased Sigma-Aldrich (St. Louis, MO); host or cells: insect cells
T1 sequence (P27338 1-520): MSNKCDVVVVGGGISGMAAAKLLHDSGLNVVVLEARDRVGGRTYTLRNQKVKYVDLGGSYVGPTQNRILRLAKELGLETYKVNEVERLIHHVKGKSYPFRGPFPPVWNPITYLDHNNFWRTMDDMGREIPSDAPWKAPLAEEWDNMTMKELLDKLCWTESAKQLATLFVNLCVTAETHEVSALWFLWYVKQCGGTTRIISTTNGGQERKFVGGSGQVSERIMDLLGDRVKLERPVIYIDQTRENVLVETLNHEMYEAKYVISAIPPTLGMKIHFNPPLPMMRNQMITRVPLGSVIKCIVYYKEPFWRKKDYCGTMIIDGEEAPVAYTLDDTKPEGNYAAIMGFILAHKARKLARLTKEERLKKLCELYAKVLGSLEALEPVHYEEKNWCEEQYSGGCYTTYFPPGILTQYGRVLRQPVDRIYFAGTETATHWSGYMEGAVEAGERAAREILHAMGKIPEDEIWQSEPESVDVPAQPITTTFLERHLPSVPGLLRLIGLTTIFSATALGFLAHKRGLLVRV
Method: (§1) The inhibitory activity of MAO-A, B enzyme of the compounds was evaluated based on previously described method. The MAO activity was measured in relative fluorescence units (RFUs) evoked by peroxidase-catalyzed oxidation of Amplex Red® to resorufin, in which H2O2 generated by MAO reaction was used as the electron donor. Human recombinant MAO-A (hMAO-A) and MAO-B (hMAO-B) enzyme expressed in insect cells were obtained from Sigma-Aldrich (St. Louis, MO). The 2 μL of test compound in DMSO (final concentration: 1 nM to 10 μM) was treated with 98 μL of hMAO enzyme solution in 50 mM sodium phosphate buffer (pH 7.4, final protein amounts: ∼1.25 μg protein/well for MAO-A and ∼2.5 μg protein/well for MAO-B) on 96-well black plate and incubated for 15 min at 37 °C. Then, 100 μL of reaction working solution which is mixed solution of 400 μM Amplex Red® (Cayman, Ann Arbor, MI, final concentration: 200 μM), 2 U/mL horseradish peroxidase (Sigma-Aldrich, St. Louis, MO, final concentration: 1 U/mL) and 2 mM substrate (p-tyramine for MAO-A, benzylamine for MAO-B, Sigma-Aldrich, St. Louis, MO, final concentration: 1 mM) in 50 mM sodium phosphate buffer (pH 7.4) were added and incubated for 20 min at 37 °C in the dark. The fluorescent intensity was quantified using a microplate reader (SpectraMax®i3, Molecular Devices, Sunnyvale, CA) with an excitation at 545 nm and an emission at 590 nm. The 50% inhibitory concentrations (IC50) of compounds were determined as the mean ± SEM in triplicate from the dose–response inhibition curves using SigmaPlot® 13.0 (Palo Alto, CA).
The target compounds 4a−l were biologically evaluated for their potential inhibitory activities over human MAO-B recombinant enzyme. The enzyme inhibition assay of the tested compounds was conducted using Amplex® Red reagent technology which offers quantitative enzyme activity sensitive detection with extended dynamic range compared to classic colorimetric oxidase assays in addition to its advantage of the fluorescence emission outside the range of compound autofluorescence (if any). Since Amplex® Red reagent is a colourless substrate able to react with H2O2 with a 1:1 stoichiometry to yield highly fluorescent resorufin, the elicited inhibitory activities of the tested compounds over MAO-B were evaluated via spectrophotometrical measurement and the fluorescence rate of the resorufin dye formation was detected. As mentioned previously, all the target compounds were designed to incorporate the same amide moiety in VI and VII at position 5 of the indole scaffold connecting one of three different heteroaromatic cycles with the indole core which is substituted with either aromatic or aliphatic moiety. […] In addition, we noticed that the benzyl and benzoyl moieties, bearing the electron-withdrawing 3- or 4-fluoro groups in 4a−f, exerted better inhibition than the pyridylmethyl substituent (4g−i). […] It is also noteworthy to mention that the three different heteroaryl cycles incorporated in our design (pyridazine, pyrazine, and pyridine) were represented in each of the last three compounds.
The inhibitory potencies (IC50 values) of compounds producing inhibition of MAO-B activity by more than 50% were determined using five doses assay with 10, 1, 0.1, 0.01, and 0.001 μM concentrations of the tested compounds. Consequently, analogues 4b and 4e were further evaluated to determine their IC50 over MAO-B in triplicate from the dose response inhibition curves using Sigma-Plot software version 13.0 as indicated in Figure 3.

[2] = target: T2, Human recombinant MAO-A (hMAO-A) (Homo sapiens, UniProt P21397); assay: Monoamine oxidase enzyme assay (Amplex Red), MAO-A selectivity assay; type: biochemical; conditions: for inhibition at 100 µM: single dose of 100 µM of compound
T2 construct: purchased Sigma-Aldrich (St. Louis, MO); host or cells: insect cells
T2 sequence (P21397 1-527): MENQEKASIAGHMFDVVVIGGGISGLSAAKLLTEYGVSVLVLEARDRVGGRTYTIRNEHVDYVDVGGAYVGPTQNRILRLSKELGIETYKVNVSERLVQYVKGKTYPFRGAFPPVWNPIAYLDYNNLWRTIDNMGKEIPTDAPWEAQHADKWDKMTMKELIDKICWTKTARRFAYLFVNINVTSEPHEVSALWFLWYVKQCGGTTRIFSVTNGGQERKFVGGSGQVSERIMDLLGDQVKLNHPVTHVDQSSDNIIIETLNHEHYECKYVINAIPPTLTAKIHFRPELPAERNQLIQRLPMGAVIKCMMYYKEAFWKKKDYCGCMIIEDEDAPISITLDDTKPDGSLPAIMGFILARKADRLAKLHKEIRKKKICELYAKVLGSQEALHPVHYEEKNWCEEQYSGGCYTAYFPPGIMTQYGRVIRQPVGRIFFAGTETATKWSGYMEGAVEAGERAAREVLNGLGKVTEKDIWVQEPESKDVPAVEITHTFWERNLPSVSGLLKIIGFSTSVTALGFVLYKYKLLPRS
Method: as §1
It is known that non-selective (MAO-A/B combined) inhibitors lead to several problems when taken concomitantly with tyramine-containing foods (such as cheese) since the drug's inhibition of MAO-A causes a dangerous elevation of serum tyramine levels, which can cause hypertensive symptoms. […] To calculate the selectivity index (SI: the selectivity for the MAO-B isoform given as the ratio of IC50 (MAO-A)/IC50 (MAO-B)), IC50 values of both compounds have been identified and found to be more than 100 µM. Consequently, the selectivity indices were calculated as illustrated in Table 2.

hMAO-B enzyme = target: T3, hMAO-B enzyme (Homo sapiens, UniProt P27338); assay: Kinetic study of MAO-B inhibition mode (Michaelis-Menten, Lineweaver-Burk); type: biochemical
T3 construct: purchased Sigma-Aldrich (St. Louis, MO); host or cells: insect cells
T3 sequence (P27338 1-520): T1 sequence (P27338 1-520)
Method: The type of MAO-B inhibition of compound 4e was determined by the Michaelis–Menten kinetic study. The catalytic rates of hMAO-B enzyme in the absence or in the presence of three different concentrations (10, 30, and 100 nM) of compound 4e were measured at seven different concentrations of the benzylamine (0.065, 0.125, 0.25, 0.5, 1, 2, and 4 mM). The corresponding progression curves and the Lineweaver–Burk plots were generated using GraphPad Prism 7 (La Jolla, CA). The maximal velocity (Vmax), the Michaelis constant (Km), and the inhibition constant (Ki) were calculated using SigmaPlot® 13.0 (Palo Alto, CA).
Detailed substrate-dependent kinetic experiments were carried out to examine the mode of MAO-B inhibition of compound 4e. The initial rates of MAO-B inhibition in the absence and presence of 4e were measured at various concentrations of benzylamine, a selective substrate for MAO-B, and both Michaelis–Menten and the Lineweaver–Burk plots are depicted in Figure 4. The Lineweaver–Burk plots for three different concentration of 4e were linear and intersected at the y-axis.

human MAO-B = system: human MAO-B; set-up: method as in PMID 24955776; conditions: cited from earlier work
MAO-A = system: MAO-A; set-up: method as in PMID 24955776; conditions: cited from earlier work
[3] = single dose of 10 µM of compound

Compound	inhibition at 10 µM [1, 3] [%]	melting point [°C]	also measured
O=C(Nc1ccc2c(ccn2C(=O)c2cccc(F)c2)c1)c1ccnnc1 [4d, N-(1-(3-fluorobenzoyl)-1H-indol-5-yl)pyridazine-4-carboxamide]	19.1 ± 0.47	196.7 to 196.9	
O=C(Nc1ccc2c(ccn2Cc2ccc(F)cc2)c1)c1cnccn1 [4b, N-(1-(4-fluorobenzyl)-1H-indol-5-yl)pyrazine-2-carboxamide]			IC50 [1]: 1650 nM; inhibition at 10 µM [1]: 88.49 ± 0.13%; SI (selectivity index), IC50 (MAO-A)/IC50 (MAO-B) [1]: >60; IC50 [2]: > 100000 nM; inhibition at 100 µM [2]: 12.9 ± 1.09%
Cn1ccc2cc(NC(=O)c3cccnc3)ccc21 [4l, N-(1-methyl-1H-indol-5-yl)nicotinamide]	11.6	164.2 to 164.9	
Cn1ccc2cc(NC(=O)c3ccnnc3)ccc21 [4j, N-(1-methyl-1H-indol-5-yl)pyridazine-4-carboxamide]	9.52 ± 0.61	181.1 to 182	
O=C(Nc1ccc2[nH]ncc2c1)c1c(F)cccc1Cl [VII]			IC50 (human MAO-B): 3300 nM; IC50 (MAO-A): > 10000 nM
O=C(Nc1ccc2c(ccn2Cc2ccc(F)cc2)c1)c1ccnnc1 [4a, N-(1-(4-fluorobenzyl)-1H-indol-5-yl)pyridazine-4-carboxamide]	13.2 ± 3.32	212.6 to 213.1	
O=C(Nc1ccc2c(ccn2C(=O)c2cccc(F)c2)c1)c1cccnc1 [4f, N-(1-(3-fluorobenzoyl)-1H-indol-5-yl)nicotinamide]	30.29 ± 0.24	212.9 to 214.2	
C#CCN[C@@H]1CCc2ccccc21 [rasagiline]			SI (selectivity index) for MAO-B (human MAO-B; calculated SI): > 50
O=C(Nc1ccc2[nH]ncc2c1)c1cccc(Cl)c1Cl [VI]			IC50 (human MAO-B): 2590 nM; IC50 (MAO-A): > 10000 nM
Cn1cc(C(=O)Nc2ccc3[nH]ncc3c2)ccc1=O [V]			Activity over human MAO-B (in words) (human MAO-B): totally inactive; IC50 (human MAO-B): > 10000 nM; IC50 (MAO-A): > 10000 nM

The next lines start with results.

inhibition at 10 µM [1, 3] [%]	melting point [°C]	Compound	also measured
66.4 ± 0.79	221.3 to 222.2	O=C(Nc1ccc2c(ccn2C(=O)c2cccc(F)c2)c1)c1cnccn1 [4e, N-(1-(3-fluorobenzoyl)-1H-indol-5-yl)pyrazine-2-carboxamide]	IC50 [1]: 780 nM; SI (selectivity index), IC50 (MAO-A)/IC50 (MAO-B) [1]: >120; IC50 [2]: > 100000 nM; inhibition at 100 µM [2]: 4.76 ± 0.59%; Mode of MAO-B inhibition (hMAO-B enzyme; Lineweaver-Burk plots intersected at the y-axis): competitive; also recorded: reversible; Ki (hMAO-B enzyme; substrate benzylamine, 10, 30, 100 nM of 4e, read-out: Inhibition constant (Ki) MAO-B): 94.5 nM
49.7 ± 0.68	172.5 to 174	Cn1ccc2cc(NC(=O)c3cnccn3)ccc21 [4k, N-(1-methyl-1H-indol-5-yl)pyrazine-2-carboxamide]	
2.38 ± 0.66	152 to 152.9	O=C(Nc1ccc2c(ccn2Cc2ccccn2)c1)c1cnccn1 [4h, N-(1-(pyridin-2-ylmethyl)-1H-indol-5-yl)pyrazine-2-carboxamide]	
11.2 ± 0.24	200 to 200.4	O=C(Nc1ccc2c(ccn2Cc2ccc(F)cc2)c1)c1cccnc1 [4c, N-(1-(4-fluorobenzyl)-1H-indol-5-yl)nicotinamide]	
1.83 ± 0.75	141.8 to 143	O=C(Nc1ccc2c(ccn2Cc2ccccn2)c1)c1ccnnc1 [4g, N-(1-(pyridin-2-ylmethyl)-1H-indol-5-yl)pyridazine-4-carboxamide]	
1.81 ± 0.85	142.9 to 144.3	O=C(Nc1ccc2c(ccn2Cc2ccccn2)c1)c1cccnc1 [4i, N-(1-(pyridin-2-ylmethyl)-1H-indol-5-yl)nicotinamide]	
